{"source": "patent US20210244704A1", "about": "“Cabazitaxel in mCRPC Patients Previously Treated with Docetaxel and Who Failed a Prior androgen signaling targeted inhibitor Agent” (SANOFI MATURE IP, priority 2019, published 2021)", "key": {"pain in mCRPC patients": {"tested_on": "pain in mCRPC patients", "experiment": "Same clinical study: pain response and pain progression (BPI-SF)", "type": "in vivo, human", "details": "for Pain progression, HR: cabazitaxel vs abiraterone or enzalutamide", "procedure": "Pain response (PR): was measured using the Brief Pain Inventory-Short Form for pain intensity score and defined as a decrease by >30% from baseline in the Brief Pain Inventory-Short Form pain intensity item scores observed at two consecutive evaluations weeks apart without an increase in analgesic usage score.\nPain response was defined as a decrease≥30% from baseline in BPI-SF pain intensity score with no increased analgesic use. HRQL was assessed using the Functional Assessment of Cancer Therapy-Prostate (FACT-P) questionnaire. Pain intensity was defined using item 3 of the validated Brief Pain Inventory-Short Form (BPI-SF), which rates pain at its worst in the last 24 hours on a scale of 0 (no pain) to 10 (worst imaginable pain). Analgesic consumption was reported by local investigators and coded by the World Health Organization's analgesic ladder (0=no analgesic; 1=non-opioid analgesics; 2=opioid analgesics for moderate pain; 3=opioids for severe pain). […] A clinically meaningful improvement or deterioration of total FACT-P score was defined as a difference of ±10 points from baseline. Clinically meaningful changes in HRQL and pain response were confirmed at two consecutive evaluations≥3 weeks apart during the on-treatment period. Survival curves were generated by Kaplan-Meier estimates.\n(§1) Efficacy analysis used all randomized patients. Stratified log-rank tests were used to analyze time-to-event data. The primary analysis compared radiographic progression-free survival between the two treatment groups using a stratified log-rank test. Survival curves were generated using Kaplan-Meier estimates. Hazard ratios and associated 95% confidence intervals [CI] were estimated using a stratified Cox proportional hazards model. Stratified Cochran-Mantel-Haenszel chi-square tests were used to analyze categorical data. Descriptive statistics were used to summarize patient characteristics. The safety population (randomized patients who received at least one dose of study treatment) was used for all safety analyses."}, "[1]": {"tested_on": "mCRPC patients, safety population", "experiment": "Same clinical study: safety (adverse events, laboratory abnormalities, dose reductions)", "type": "in vivo, human", "procedure": "For patients in Arm A, cabazitaxel 25 mg/m^2 was administered intravenously over 1 hour every 3 weeks along with oral prednisone 10 mg given daily. Primary prophylactic granulocyte-colony stimulating factor (G-CSF) was required at each cycle for all patients in the cabazitaxel arm\nFor patients in Arm B, abiraterone acetate was administered orally at 1000 mg once daily along with oral prednisone 5 mg given twice daily or enzalutamide was administered orally at 160 mg once daily continuously. Abiraterone acetate was administered to patients who had received enzalutamide prior to study entry. Enzalutamide was administered to patients who received prior abiraterone acetate.\nCabazitaxel 25 mg/m^2, was administered intravenously over 1 hour every 3 weeks with oral prednisone 10 mg daily. Premedication included an antihistamine, glucocorticoid (dexamethasone 8 mg or equivalent), and histamine 2 receptor antagonist. Antiemetic prophylaxis was administered at physician's discretion. Primary prophylactic granulocyte-colony stimulating factor was required during each cycle of cabazitaxel. Patients received either abiraterone acetate (1000 mg orally once daily and oral prednisone 5 mg twice daily) or enzalutamide (160 mg orally once daily) continuously. A treatment cycle was 3 weeks in both arms. Abiraterone acetate was given to patients who previously received enzalutamide before study entry. Enzalutamide was given to patients who previously received abiraterone acetate.\nUp to a maximum of 2 dose reductions was allowed per patient when necessary due to toxicity and according to the table below:\nas §1"}, "[2]": {"details": "human, in vivo, listed as cabazitaxel"}}, "note": "Marks after values point to notes of the source that are not given here."}
{"compound": "CO[C@H]1C(=O)[C@]2(C)[C@@H](OC)C[C@H]3OC[C@@]3(OC(C)=O)[C@H]2[C@H](OC(=O)c2ccccc2)[C@]2(O)C[C@H](OC(=O)[C@H](O)[C@@H](NC(=O)OC(C)(C)C)c3ccccc3)C(C)=C1C2(C)C", "note": "[Cabazitaxel, 4α-acetoxy-2α-benzoyloxy-5β,20-epoxy-1p-hydroxy-7β,10β-dimethoxy-9-oxo-11-taxen-13α-yl (2R,3S)-3-tert-butoxycarbonylamino-2-hydroxy-3-phenylpropionate]", "values": [{"measurement": "Pain (BPI-SF), Kaplan-Meier probability of no deterioration at 3 months", "setting": "pain in mCRPC patients; 3 months", "value": 87.8}, {"measurement": "Probability of not having pain progression after 12 months", "setting": "pain in mCRPC patients; 12 months", "value": 66.2, "unit": "%"}, {"measurement": "Pain progression, HR", "setting": "pain in mCRPC patients", "value": "0.55*"}, {"measurement": "Pain progression, HR", "setting": "pain in mCRPC patients; listed as cabazitaxel", "value": 0.55}, {"measurement": "Patients with a confirmed pain response", "setting": "pain in mCRPC patients; evaluable 111 and 109", "value": 50, "unit": "n"}, {"measurement": "Patients with a confirmed pain response", "setting": "pain in mCRPC patients; evaluable patients, listed as cabazitaxel", "value": 45.0, "unit": "%"}, {"measurement": "Median time to pain progression (BPI-SF)", "setting": "pain in mCRPC patients; human, in vivo", "value": "NE (NE-NE)"}, {"measurement": "Pain (BPI-SF) deterioration events", "setting": "pain in mCRPC patients; human, in vivo", "value": 22.5, "unit": "%"}, {"measurement": "Pain (BPI-SF) deterioration events, n/nT", "setting": "pain in mCRPC patients; human, in vivo", "value": "25/111"}, {"measurement": "Median time to pain progression (BPI-SF)", "setting": "pain in mCRPC patients; [2]", "value": "not reached"}, {"measurement": "Grade ≥3 neutropenia, measured at nadir by blood test", "setting": "[1]", "value": 55, "unit": "patients"}, {"measurement": "Anemia (laboratory abnormality)", "setting": "[1]; All grades", "value": "(99.2) %"}, {"measurement": "Constipation", "setting": "[1]; All grades", "value": 19, "unit": "n"}, {"measurement": "Hematuria", "setting": "[1]; All grades", "value": 19, "unit": "n"}, {"measurement": "Hypokalemia (laboratory abnormality)", "setting": "[1]; All grades", "value": "(12.0) %"}, {"measurement": "Leukopenia (laboratory abnormality)", "setting": "[1]; All grades", "value": "(74.4) %"}, {"measurement": "Thrombocytopenia (laboratory abnormality)", "setting": "[1]; All grades", "value": "(40.8) %"}, {"measurement": "Alopecia", "setting": "[1]; Grade ≥3", "value": 0, "unit": "n"}, {"measurement": "Anemia (laboratory abnormality)", "setting": "[1]; Grade ≥3", "value": "(8.0) %"}, {"measurement": "Arthralgia", "setting": "[1]; Grade ≥3", "value": 0, "unit": "n"}, {"measurement": "Asthenia/fatigue", "setting": "[1]; Grade ≥3", "value": 4.0, "unit": "%"}, {"measurement": "Bladder and urethral symptoms", "setting": "[1]; Grade ≥3", "value": 0, "unit": "n"}, {"measurement": "Cardiac disorders", "setting": "[1]; Grade ≥3", "value": 0.8, "unit": "%"}, {"measurement": "Constipation", "setting": "[1]; Grade ≥3", "value": 0, "unit": "n"}, {"measurement": "Diarrhea", "setting": "[1]; Grade ≥3", "value": 3.2, "unit": "%"}, {"measurement": "Dysgeusia", "setting": "[1]; Grade ≥3", "value": 0, "unit": "n"}, {"measurement": "Dyspnea", "setting": "[1]; Grade ≥3", "value": 0, "unit": "n"}, {"measurement": "Febrile neutropenia", "setting": "[1]; Grade ≥3", "value": 3.2, "unit": "%"}, {"measurement": "Hypokalemia (laboratory abnormality)", "setting": "[1]; Grade ≥3", "value": "(0.8) %"}, {"measurement": "Leukopenia (laboratory abnormality)", "setting": "[1]; Grade ≥3", "value": "(32.0) %"}, {"measurement": "Musculoskeletal pain/discomfort", "setting": "[1]; Grade ≥3", "value": 1.6, "unit": "%"}, {"measurement": "Nausea/vomiting", "setting": "[1]; Grade ≥3", "value": 0, "unit": "n"}, {"measurement": "Peripheral edema", "setting": "[1]; Grade ≥3", "value": 0, "unit": "n"}, {"measurement": "Peripheral neuropathy", "setting": "[1]; Grade ≥3", "value": 3.2, "unit": "%"}, {"measurement": "Psychiatric disorders", "setting": "[1]; Grade ≥3", "value": 0, "unit": "n"}, {"measurement": "Renal disorders", "setting": "[1]; Grade ≥3", "value": 3.2, "unit": "%"}, {"measurement": "Spinal cord and nerve root disorders", "setting": "[1]; Grade ≥3", "value": 2.4, "unit": "%"}, {"measurement": "Stomatitis", "setting": "[1]; Grade ≥3", "value": 0, "unit": "n"}, {"measurement": "Thrombocytopenia (laboratory abnormality)", "setting": "[1]; Grade ≥3", "value": "(3.2) %"}, {"measurement": "Weight decreased", "setting": "[1]; Grade ≥3", "value": 0, "unit": "n"}, {"measurement": "Grade 5 adverse events related to bronchial aspiration", "setting": "[1]; human, in vivo", "value": "one"}, {"measurement": "Grade 5 adverse events related to general health deterioration due to progressive disease", "setting": "[1]; human, in vivo", "value": "two"}, {"measurement": "Grade 5 adverse events related to head injury", "setting": "[1]; human, in vivo", "value": "one"}, {"measurement": "Grade 5 adverse events related to infections", "setting": "[1]; human, in vivo", "value": "two"}, {"measurement": "Grade 5 adverse events related to spinal cord compression", "setting": "[1]; human, in vivo", "value": "one"}, {"measurement": "Nail disorders", "setting": "[1]; human, in vivo", "value": "no nail disorders were reported"}, {"measurement": "Any adverse event leading to permanent treatment discontinuation", "setting": "[1]; [2]", "value": 19.8, "unit": "%"}, {"measurement": "Any adverse events", "setting": "[1]; [2]", "value": 98.4, "unit": "%"}, {"measurement": "Any grade ≥3 adverse events", "setting": "[1]; [2]", "value": 56.3, "unit": "%"}, {"measurement": "Any serious adverse events", "setting": "[1]; [2]", "value": 38.9, "unit": "%"}, {"measurement": "Grade ≥3 adverse events occurring more frequently in patients ≥70 years of age", "setting": "[1]; ≥70 vs <70 years", "value": "asthenia, diarrhea and febrile neutropenia"}]}
